Among the data in patent publication US8889727B2, “Topical antifungal agent” (Meiji Seika Pharma Co., Ltd., priority 2011, dated 2014) are MIC and inhibition of growth values, retold here.

What is called MIC is the smallest concentration in the dilution series that meets the test's criterion for growth inhibition. Broadly, the inhibition of growth is the drop in the measured response relative to a control, in per cent. Low values mean a response near the control, high ones a response far below the control.

Converted amounts (≈) assume the structure as drawn.

One experiment has as its system T. mentagrophytes ATCC18748. Description: Measurement of antifungal activity (MIC, WST8 growth inhibition). Type of experiment: cell-based. Conditions: Trichophyton mentagrophytes, 72 h; 80% growth inhibition concentration; T. mentagrophytes ATCC18748, RPMI1640/MOPS, 28° C., 3 days. Here is the method: (§1) The compounds for evaluation were dissolved in dimethyl sulfoxide (DMSO) and used. As the test medium, RPMI1640 medium containing 0.165 M 3-morpholino propane sulfonic acid (MOPS) was used. As the test strain, T. mentagrophytes ATCC18748 or T. rubrum ATCC10218 was used. 100 μL of the test strain each at a concentration of 1×10^4 conidia/mL was dispensed, mixed with compounds for evaluation on 96 well half area plate so that the concentration of DMSO becomes 1%, and cultured at 28° C. for 3 days (for T. mentagrophytes) or for 4 days (for T. rubrum). Then, 5 μL of Cell Counting Kit8 (WST8) was added and the absorbances at 450 nm and 595 nm was measured as background. Subsequently, they were incubated at 28° C. for 5 hours (for T. mentagrophytes) or overnight (for T. rubrum) to color, and again the absorbances at 450 nm and 595 nm was measured, and then calculated the growth inhibition percentages using the differences from the background, and 80% growth inhibition concentration was regarded as MIC (μg/ml). Measurement of antifungal activity was conducted by the following method. Compounds for evaluation were dissolved in dimethyl sulfoxide (DMSO) and used. As the test medium, RPMI1640 medium containing 0.165 M 3-morpholinopropane sulfonic acid (MOPS) was used. As the test strain, T. mentagrophytes ATCC18748 or T. rubrum ATCC10218 was used. 100 μL of the test strain was dispensed at a concentration of 1×10^4 conidia/mL, mixed with compounds for evaluation on 96 well half area plate so that the concentration of DMSO becomes 1%, and cultured at a culture temperature of 28° C. for 3 days (for T. mentagrophytes) or for 4 days (for T. rubrum). Then, 5 μL of Cell Counting Kit8 (WST8) was added and the absorbances at 450 nm and 595 nm was measured as background. Subsequently, they were incubated at 28° C. for 5 hours (for T. mentagrophytes) or overnight (for T. rubrum), and again measured the absorbances at 450 nm and 595 nm was measured, and then calculated the growth inhibition percentages using the differences from the background, and 80% growth inhibition concentration was regarded as MIC (μg/ml).
Background: Tetrazolium assays rely on reduction of a dye to a coloured formazan, in cell work by metabolically active cells.
Take `COC(=O)CCc1c(C)nn(-c2ccccc2O)c1C` [Example 23, Methyl 3-(1-(2-hydroxyphenyl)-3,5-dimethyl-1H-pyrazol-4-yl)propanoate]: the MIC fell in the range of 16 to 32 µg/mL (≈ 58.3 to 117 µM).

Take `CCCCc1c(C)nn(-c2ccccc2O)c1C` [Example 24, 2-(4-Butyl-3,5-dimethyl-1H-pyrazol-1-yl)phenol]: the MIC is at most 1 µg/mL.

The compound `Cc1cc(C)n(-c2ccc(F)cc2O)n1` [Example 25, 2-(3,5-Dimethyl-1H-pyrazol-1-yl)-5-fluorophenol] gave an MIC of 2 to 8 µg/mL (≈ 9.7 to 38.8 µM).

In turn, `Cc1cc(C)n(-c2ccc(Cl)cc2O)n1` [Example 26, 5-Chloro-2-(3,5-dimethyl-1H-pyrazol-1-yl)phenol] gave an MIC of at most 1 µg/mL.

Compound `Cc1cc(C)n(-c2ccc([N+](=O)[O-])cc2O)n1` [Example 28, 2-(3,5-Dimethyl-1H-pyrazol-1-yl)-5-nitrophenol] had an MIC of 2 to 8 µg/mL (≈ 8.58 to 34.3 µM).

`Cc1nn(-c2ccc(Cl)cc2O)c(C)c1C` [Example 30, 5-Chloro-2-(3,4,5-trimethyl-1H-pyrazol-1-yl)phenol] yielded a minimum inhibitory concentration (MIC) of at most 1 µg/mL.

For `Cc1cc(C)n(-c2ccc(N)cc2O)n1` [Example 31, 5-Amino-2-(3,5-dimethyl-1H-pyrazol-1-yl)phenol], the minimal inhibitory concentration (MIC) fell in the range of 2 to 8 µg/mL (≈ 9.84 to 39.4 µM).

`Cc1nn(-c2ccc([N+](=O)[O-])cc2O)c(C)c1C` [Example 32, 5-Nitro-2-(3,4,5-trimethyl-1H-pyrazol-1-yl)phenol] showed an MIC of 2 to 8 µg/mL (≈ 8.09 to 32.4 µM).

In turn, `Cc1cc(C)n(-c2ccc(O)cc2O)n1` [Example 33, 4-(3,5-Dimethyl-1H-pyrazol-1-yl)benzene-1,3-diol] gave an MIC of 2 to 8 µg/mL (≈ 9.79 to 39.2 µM).

On to `Cc1nn(-c2ccc(N)cc2O)c(C)c1C` [Example 34, 5-Amino-2-(3,4,5-trimethyl-1H-pyrazol-1-yl)phenol], for which the MIC lay in the range of 2 to 8 µg/mL (≈ 9.21 to 36.8 µM).

For `COC(=O)c1ccc(-n2nc(C)cc2C)c(O)c1` [Example 35, Methyl 4-(3,5-dimethyl-1H-pyrazol-1-yl)-3-hydroxybenzene carboxylate], the minimal inhibitory concentration (MIC) was 16 to 32 µg/mL (≈ 65 to 130 µM).

`Cc1cc(C)n(-c2c(N)cccc2O)n1` [Example 36, 3-Amino-2-(3,5-dimethyl-1H-pyrazol-1-yl)phenol]: the inhibition of growth at 32 µg/mL was under 50%.

In turn, `Cc1cc(C)n(-c2ccc(C(=O)O)cc2O)n1` [Example 37, 4-(3,5-Dimethyl-1H-pyrazol-1-yl)-3-hydroxybenzene carboxylic acid] registered an MIC of 2 to 8 µg/mL (≈ 8.61 to 34.4 µM).

In turn, `Cc1cc(C)n(-c2ccc(C(=O)N(C)C)cc2O)n1` [Example 38, 4-(3,5-Dimethyl-1H-pyrazol-1-yl)-3-hydroxy-N,N-dimethylbenzamide] gave an MIC of 16 to 32 µg/mL (≈ 61.7 to 123 µM).

In turn, `Cc1nn(-c2ccc(C(=O)O)cc2O)c(C)c1C` [Example 40, 3-Hydroxy-4-(3,4,5-trimethyl-1H-pyrazol-1-yl)benzene carboxylic acid] showed an inhibition of growth at 32 µg/mL of under 50%.

For `Cc1nn(-c2ccc(C(N)=O)cc2O)c(C)c1C` [Example 41, 3-Hydroxy-4-(3,4,5-trimethyl-1H-pyrazol-1-yl)benzamide], the inhibition of growth at 32 µg/mL lay in the range of 50 to 80%.

With `Cc1nn(-c2ccc(C(N)=O)cc2O)c(C)c1Cl` [Example 42, 4-(4-Chloro-3,5-dimethyl-1H-pyrazol-1-yl)-3-hydroxybenzamide], the MIC was 16 to 32 µg/mL (≈ 60.2 to 120 µM).

`Cc1cc(C)n(-c2c(O)cccc2O)n1` [Example 43, 2-(3,5-Dimethyl-1H-pyrazol-1-yl)benzene-1,3-diol] came in with an inhibition of growth at 32 µg/mL of under 50%.

The next experiment deals with T. rubrum ATCC10218. Described as above. Type of experiment: cell-based. Conditions: Trichophyton rubrum, 96 h; 80% growth inhibition concentration; T. rubrum ATCC10218, RPMI1640/MOPS, 28° C., 4 days. As for the experimental part: as §1
`COC(=O)CCc1c(C)nn(-c2ccccc2O)c1C` [Example 23, Methyl 3-(1-(2-hydroxyphenyl)-3,5-dimethyl-1H-pyrazol-4-yl)propanoate]: the MIC was 32 to 64 µg/mL (≈ 117 to 233 µM).

For the compound `CCCCc1c(C)nn(-c2ccccc2O)c1C` [Example 24, 2-(4-Butyl-3,5-dimethyl-1H-pyrazol-1-yl)phenol], the MIC fell in the range of 16 to 32 µg/mL (≈ 65.5 to 131 µM).

With `Cc1cc(C)n(-c2ccc(F)cc2O)n1` [Example 25, 2-(3,5-Dimethyl-1H-pyrazol-1-yl)-5-fluorophenol], the MIC lay within 4 to 16 µg/mL (≈ 19.4 to 77.6 µM).

With `Cc1cc(C)n(-c2ccc(Cl)cc2O)n1` [Example 26, 5-Chloro-2-(3,5-dimethyl-1H-pyrazol-1-yl)phenol], the MIC is at most 2 µg/mL.

The compound `Cc1cc(C)n(-c2ccc([N+](=O)[O-])cc2O)n1` [Example 28, 2-(3,5-Dimethyl-1H-pyrazol-1-yl)-5-nitrophenol] had an MIC of 16 to 32 µg/mL (≈ 68.6 to 137 µM).

Compound `Cc1nn(-c2ccc(Cl)cc2O)c(C)c1C` [Example 30, 5-Chloro-2-(3,4,5-trimethyl-1H-pyrazol-1-yl)phenol] showed an MIC of at most 2 µg/mL.

Compound `Cc1cc(C)n(-c2ccc(N)cc2O)n1` [Example 31, 5-Amino-2-(3,5-dimethyl-1H-pyrazol-1-yl)phenol] showed an MIC of 4 to 16 µg/mL (≈ 19.7 to 78.7 µM).

Consider `Cc1nn(-c2ccc([N+](=O)[O-])cc2O)c(C)c1C` [Example 32, 5-Nitro-2-(3,4,5-trimethyl-1H-pyrazol-1-yl)phenol], for which the MIC fell in the range of 4 to 16 µg/mL (≈ 16.2 to 64.7 µM).

As to `Cc1cc(C)n(-c2ccc(O)cc2O)n1` [Example 33, 4-(3,5-Dimethyl-1H-pyrazol-1-yl)benzene-1,3-diol], the MIC is at most 2 µg/mL.

For `Cc1nn(-c2ccc(N)cc2O)c(C)c1C` [Example 34, 5-Amino-2-(3,4,5-trimethyl-1H-pyrazol-1-yl)phenol], the MIC lay within 4 to 16 µg/mL (≈ 18.4 to 73.6 µM).

`COC(=O)c1ccc(-n2nc(C)cc2C)c(O)c1` [Example 35, Methyl 4-(3,5-dimethyl-1H-pyrazol-1-yl)-3-hydroxybenzene carboxylate]: the MIC fell in the range of 16 to 32 µg/mL (≈ 65 to 130 µM).

The compound `Cc1cc(C)n(-c2c(N)cccc2O)n1` [Example 36, 3-Amino-2-(3,5-dimethyl-1H-pyrazol-1-yl)phenol] yielded an MIC of 32 to 64 µg/mL (≈ 157 to 315 µM).

`Cc1cc(C)n(-c2ccc(C(=O)O)cc2O)n1` [Example 37, 4-(3,5-Dimethyl-1H-pyrazol-1-yl)-3-hydroxybenzene carboxylic acid] yielded an MIC of 4 to 16 µg/mL (≈ 17.2 to 68.9 µM).

The compound `Cc1cc(C)n(-c2ccc(C(=O)N(C)C)cc2O)n1` [Example 38, 4-(3,5-Dimethyl-1H-pyrazol-1-yl)-3-hydroxy-N,N-dimethylbenzamide] gave an MIC of 4 to 16 µg/mL (≈ 15.4 to 61.7 µM).

`Cc1nn(-c2ccc(C(=O)O)cc2O)c(C)c1C` [Example 40, 3-Hydroxy-4-(3,4,5-trimethyl-1H-pyrazol-1-yl)benzene carboxylic acid] returned an MIC of 32 to 64 µg/mL (≈ 130 to 260 µM).

Regarding `Cc1nn(-c2ccc(C(N)=O)cc2O)c(C)c1C` [Example 41, 3-Hydroxy-4-(3,4,5-trimethyl-1H-pyrazol-1-yl)benzamide], the MIC lay in the range of 32 to 64 µg/mL (≈ 130 to 261 µM).

Consider `Cc1nn(-c2ccc(C(N)=O)cc2O)c(C)c1Cl` [Example 42, 4-(4-Chloro-3,5-dimethyl-1H-pyrazol-1-yl)-3-hydroxybenzamide], for which the MIC lay within 32 to 64 µg/mL (≈ 120 to 241 µM).

`Cc1cc(C)n(-c2c(O)cccc2O)n1` [Example 43, 2-(3,5-Dimethyl-1H-pyrazol-1-yl)benzene-1,3-diol] yielded an MIC of 32 to 64 µg/mL (≈ 157 to 313 µM).
